Test results: ChEMBL document CHEMBL3792312, “Synthesis and docking studies of pyrazine-thiazolidinone hybrid scaffold targeting dormant tuberculosis” (Bioorg Med Chem Lett, 2016)
≈ marks a conversion by molar mass, not a printed value.

Columns and labels:
[1] = test system: Mycolicibacterium smegmatis; assay: Antitubercular activity against dormant Mycobacterium smegmatis MC2 155 at 3 ug after 12 days by XTT-Menadione assay; type: functional, str. MC2 155
[2] = Cytotoxicity against human PANC1 cells after 5 days by MTT assay; type: cell-based, PANC-1
[3] = test system: Mycobacterium tuberculosis; assay: Antitubercular activity against dormant Mycobacterium tuberculosis H37Ra after 12 days by XTT-Menadione assay; type: functional, organism-based; settings: 288 h
[4] = test system: Mycolicibacterium smegmatis; assay: Antitubercular activity against dormant Mycobacterium smegmatis MC2 155 at 10 ug after 12 days by XTT-Menadione assay; type: functional, str. MC2 155
Pseudomonas fluorescens [5] = assay: Antibacterial activity against Pseudomonas fluorescens at 3 ug after 8 hrs; type: functional
Escherichia coli [6] = assay: Antibacterial activity against Escherichia coli at 10 ug after 8 hrs; type: functional
A549 = assay: (§1) Cytotoxicity against human A549 cells after 3 days by MTT assay; type: cell-based; settings: Homo sapiens, A549, 72 h
[7] = as §1; type: cell-based; settings: human, A549 cells; read-out: MIC
Bacillus subtilis [8] = assay: Antibacterial activity against Bacillus subtilis at 30 ug after 12 hrs; type: functional
Pseudomonas fluorescens [9] = assay: Antibacterial activity against Pseudomonas fluorescens at 30 ug after 8 hrs; type: functional
[10] = test system: Mycobacterium tuberculosis; assay: Antitubercular activity against dormant Mycobacterium tuberculosis H37Ra at 30 ug after 12 days by XTT-Menadione assay; type: functional
[11] = Cytotoxicity against human THP1 cells after 5 days by MTT assay; type: cell-based, THP-1
Escherichia coli [12] = assay: Antibacterial activity against Escherichia coli at 30 ug after 8 hrs; type: functional
[13] = test system: Mycobacterium tuberculosis; assay: Antitubercular activity against dormant Mycobacterium tuberculosis H37Ra at 3 ug after 12 days by XTT-Menadione assay; type: functional
Escherichia coli [14] = assay: Antibacterial activity against Escherichia coli at 3 ug after 8 hrs; type: functional
Staphylococcus aureus [15] = assay: Antibacterial activity against Staphylococcus aureus at 10 ug after 12 hrs; type: functional
MCF7 = assay: (§2) Cytotoxicity against human MCF7 cells after 4 days by MTT assay; type: cell-based; settings: Homo sapiens, MCF7, 96 h
[16] = as §2; type: cell-based; settings: human, MCF7 cells; read-out: MIC
Staphylococcus aureus [17] = assay: Antibacterial activity against Staphylococcus aureus at 30 ug after 12 hrs; type: functional
Bacillus subtilis [18] = assay: Antibacterial activity against Bacillus subtilis at 10 ug after 12 hrs; type: functional
Pseudomonas fluorescens [19] = assay: Antibacterial activity against Pseudomonas fluorescens at 10 ug after 8 hrs; type: functional
[20] = test system: Mycolicibacterium smegmatis; assay: Antitubercular activity against dormant Mycobacterium smegmatis MC2 155 at 30 ug after 12 days by XTT-Menadione assay; type: functional, str. MC2 155
Staphylococcus aureus [21] = assay: Antibacterial activity against Staphylococcus aureus at 3 ug after 12 hrs; type: functional
Bacillus subtilis [22] = assay: Antibacterial activity against Bacillus subtilis at 3 ug after 12 hrs; type: functional
[23] = test system: Mycobacterium tuberculosis; assay: Antitubercular activity against dormant Mycobacterium tuberculosis H37Ra at 10 ug after 12 days by XTT-Menadione assay; type: functional

O=C(NN1C(=O)CS[C@@H]1c1ccc([N+](=O)[O-])cc1)c1cnccn1
inhibition (INH) [1]: 36.09%
IC50 ([2]; Homo sapiens, PANC-1, 120 h): > 100 µg/mL
MCC at 120 h ([2]; human, PANC1 cells, read-out: MIC): > 100 µg/mL
IC50 [3]: 1.47 µg/mL (≈ 4.25 µM)
MIC [3]: 29 µg/mL (≈ 84 µM)
inhibition (INH) [4]: -31.0588%
inhibition (INH) (Pseudomonas fluorescens [5]): 6.405%
inhibition (INH) (Escherichia coli [6]): 14.12%
IC50 (A549): > 100 µg/mL
MCC at 72 h [7]: > 100 µg/mL
inhibition (INH) (Bacillus subtilis [8]): 8.09%
inhibition (INH) (Pseudomonas fluorescens [9]): -21.38%
inhibition (INH) [10]: 90.93%
IC50 ([11]; Homo sapiens, THP-1, 120 h): 97.7 µg/mL (≈ 283 µM)
MCC at 120 h ([11]; human, THP1 cells, read-out: MIC): > 100 µg/mL
inhibition (INH) (Escherichia coli [12]): 9%
inhibition (INH) [13]: 60.59%
inhibition (INH) (Escherichia coli [14]): -6.69%
inhibition (INH) (Staphylococcus aureus [15]): -1.75%
IC50 (MCF7): 65.6 µg/mL (≈ 190 µM)
MCC at 96 h [16]: > 100 µg/mL
inhibition (INH) (Staphylococcus aureus [17]): -24.9%
inhibition (INH) (Bacillus subtilis [18]): -4.94%
inhibition (INH) (Pseudomonas fluorescens [19]): 13.35%
inhibition (INH) [20]: 9.803%
inhibition (INH) (Staphylococcus aureus [21]): 21.93%
inhibition (INH) (Bacillus subtilis [22]): 16.03%
inhibition (INH) [23]: 66.45%
